Results as given in patent publication US20070292465A1, “Eutectic biocide compositions and formulations” (Clariant International, Ltd., priority 2006, published 2007).

Experiments:
[1] = 25° C., for reference purposes; cited from earlier work
[2] = Brookfield viscosity, SC4-18 spindle, 100 rpm; type: physicochemical
Description: The procedure used a Brookfield viscometer.
The apparatus used was a Brookfield viscometer, Programmable DV-II+Viscometer and a SC4-18 spindle.
The samples were tested at 100 rpm and at a range of temperatures, as shown in Table 4—Viscosity Measurement Results below.
All measurements were made in centipoise. For reference purposes, the viscosity of water, at 25° C. is 0.89 centipoise, and the viscosity of ethylene glycol at 25° C. is about 16 centipoise.

[3] = Physical properties at freezing temperatures and on thawing (Example 3); type: physicochemical
Description: The following samples were tested to observe their physical properties at freezing temperatures:
After blending, such as by the method above, for example, all samples were allowed to cool to room temperature (20° C.). All samples stayed liquid at room temperature, except for blend 5.
All samples were placed in a freezer overnight ([…]).
All samples were placed back in the same freezer at the same temperature for an additional 2 days. In the BCP sample, there was-no change.
All samples were left at room temperature to thaw overnight.

SMILES	viscosity (reference) [1]	viscosity ([2]; 10 ° C.)	viscosity ([2]; 40 ° C.) [centipoise]	physical state after overnight freezing ([3]; freezer overnight (23° C.))	physical state after extended freezing ([3]; same freezer, same temperature, additional 2 days)
OCCO [ethylene glycol]	about 16 centipoise	–	–	–	–
Oc1ccc(Cl)cc1Cc1ccccc1 [BCP, o-benzyl p-chlorophenol]	–	Crystalline	29.4	frozen solid	no change
O [water]	0.89 centipoise	–	–	–	–
